From publication PMC11018795, “The regulatory relationship between NAMPT and PD-L1 in cancer and identification of a dual-targeting inhibitor” (EMBO Molecular Medicine, 2024)
“And” between values parts separate entries of the source, which are not always exact repeats. Identical values can stand only once.

What was measured:
[1] = system: A549 cells; assay: MTT assay 48 h, A549; assay type: cell-based, human
Description: (§1) Cells (5 × 10^3/well) were seeded into a 96-well plate and cultured at 37 °C in a 5% CO2 incubator. […] At the final time point, 10 μl MTT solution (5 mg/ml, Sigma, Burlington, MA, USA) was added to each well and incubated for an additional 4 h at 37 °C in a 5% CO2 incubator. Then,100 μl of DMSO was added to each well and mixed thoroughly. Optical density was measured at 492 nm using a microplate reader (Molecular Devices, San Jose, CA, USA).

[2] = molecular target: NAMPT (Homo sapiens, UniProt P43490); assay: Cellular thermal shift assay (CETSA), NAMPT, A2780 cells; assay type: binding; parameters: endogenous in cells; host or cells: A2780; conditions: for Relative band intensity (NAMPT): LZFPN-90 20 nM
Description: The cells were resuspended in 1× PBS supplemented with protease inhibitors (Roche) and then divided into strip tubes for 30 min. The tubes were centrifuged at 15,000× g at 4 °C for 15 min. After centrifugation, the supernatant was divided into DMSO and LZFPN-90 (20 nM) groups, and incubated at room temperature for 30 min. According to standard procedures (38 °C, 42 °C, 46 °C, 50 °C, 54 °C, 58 °C, 62 °C, 66 °C), each temperature group was heated for 3 min, incubated at room temperature for 3 min. Then centrifuged at 20,000× g for 25 min, the supernatant was collected, 1× loading buffer was added, the mixture was heated in a metal bath at 95 °C for 10 min, and the amount of non-denatured protein per sample was quantified by western blotting.

[3] = system: LLC OE NAMPT/PD-L1 tumors; assay: LLC OE NAMPT/PD-L1 tumor-bearing C57BL/6 mice; assay type: in vivo, mouse; conditions: 20 mg/kg i.p.
[4] = system: HCT-116 cells; assay: Cell cycle analysis, HCT-116; assay type: cell-based, human
Excerpt: Supplement 44321_2024_51_MOESM5_ESM.zip/Fig4-D.xlsx, sheet "Sheet1" | column: G0/G1; S; G2/M

[5] = system: MDA-MB-231 cells; assay: MTT assay 48 h, MDA-MB-231; assay type: cell-based, human
Description: as §1

[6] = system: CT-26 cells; assay: MTT assay 48 h, CT-26; assay type: cell-based, mouse
Description: as §1

[7] = system: MKN74 cells; assay: MTT assay 48 h, MKN74; assay type: cell-based, human
Description: as §1

[8] = system: LLC Vector cells co-cultured with T cells; assay: T cell-mediated tumor cell killing assay, LLC Vector; assay type: cell-based; conditions: Mus musculus, 100 nM, read-out: inhibition rate (T cell-mediated killing)
Description: To acquire activated T cells, human peripheral blood mononuclear cells (PBMC; LTS1077, Yanjin Biological) were cultured in CTSTM AIIM VTM SFM (A3021002; Gibco) with ImmunoCult Human CD3/CD28/CD2 T-cell activator (25 µL/mL; […] Technologies, Cat#10970) for 48 h according to the manufacturer’s protocol. The experiments were performed using mouse anti-CD3 antibody (1 µg/mL; Thermo Scientific, 16-0032-82) and anti-CD28 antibody(5 µg/mL; Thermo Scientific, 16-0281-82). Cancer cells were allowed to adhere to the plates overnight and then incubated for 48 h with activated T cells in the presence or absence of DX ([…]). Different proportions of cancer cells and activated T cells were utilized according to the purpose of each experiment. The T-cell proliferation assay was 1:3; the T-cell killing assay was 1:10; T cells and cell debris were removed by PBS washing, and the living cancer cells were then quantified by a spectrometer at OD (570 nm) followed by crystal violet staining. page 12: Fig 3: […] expression patterns. […] Data was obtained from the TCGA database. (B) T cell-mediated tumor cell killing assay. T cells were co-cultured with LLC Vector, […] CQ-85, or BMS202. […] stained by crystal violet. The relative added value of activated T cells is shown below. Data are presented as mean ± SEM; *P < 0.05, **P < 0.01, ***P < 0.001, compared with control. n.s., not significant. […]

[9] = system: A2780 cells; assay: MTT assay 48 h, A2780; assay type: cell-based, human
Description: as §1

[10] = system: LLC sh NAMPT cells co-cultured with T cells; assay: T cell killing assay (colony formation), LLC sh NAMPT; assay type: cell-based; conditions: Mus musculus, 72 h, 100 nM, three days, read-out: inhibition rate of colony formation number
Description: To acquire activated T cells, human peripheral blood mononuclear cells (PBMC; LTS1077, Yanjin Biological) were cultured in CTSTM AIIM VTM SFM (A3021002; Gibco) with ImmunoCult Human CD3/CD28/CD2 T-cell activator (25 μL/mL; […] Technologies, Cat#10970) for 48 h according to the manufacturer's protocol. The experiments were performed using mouse anti-CD3 antibody (1 μg/mL; Thermo Scientific, 16-0032-82) and anti-CD28 antibody(5 μg/mL; Thermo Scientific, 16-0281-82). […] Different proportions of cancer cells and activated T cells were utilized according to the purpose of each experiment. The T-cell proliferation assay was 1:3; the T-cell killing assay was 1:10; T cells and cell debris were removed by PBS washing, and the living cancer cells were then quantified by a spectrometer at OD (570 nm) followed by crystal violet staining. page 28: Fig 8: Effects of LZFPN-90 and NMN on tumor immune microenvironment. […] (C) T cells were co-cultured with LLC cells, and treated with LZFPN-90 (100 nM), and NMN (1 mM) to detect the cell proliferation by T cell killing assay. Data are presented as mean ± SEM; *P < 0.05, **P < 0.01, ***P < 0.001 compared with control. n.s., not significant. (1 picture or pasted object on this page, not shown here)

[11] = system: H1299 cells; assay: MTT assay 48 h, H1299; assay type: cell-based, human; conditions: 1299
Description: as §1

[12] = system: LLC cells; assay: MTT assay 48 h, LLC; assay type: cell-based, mouse
Description: as §1

Chain of NAMPT (P43490 whole entry): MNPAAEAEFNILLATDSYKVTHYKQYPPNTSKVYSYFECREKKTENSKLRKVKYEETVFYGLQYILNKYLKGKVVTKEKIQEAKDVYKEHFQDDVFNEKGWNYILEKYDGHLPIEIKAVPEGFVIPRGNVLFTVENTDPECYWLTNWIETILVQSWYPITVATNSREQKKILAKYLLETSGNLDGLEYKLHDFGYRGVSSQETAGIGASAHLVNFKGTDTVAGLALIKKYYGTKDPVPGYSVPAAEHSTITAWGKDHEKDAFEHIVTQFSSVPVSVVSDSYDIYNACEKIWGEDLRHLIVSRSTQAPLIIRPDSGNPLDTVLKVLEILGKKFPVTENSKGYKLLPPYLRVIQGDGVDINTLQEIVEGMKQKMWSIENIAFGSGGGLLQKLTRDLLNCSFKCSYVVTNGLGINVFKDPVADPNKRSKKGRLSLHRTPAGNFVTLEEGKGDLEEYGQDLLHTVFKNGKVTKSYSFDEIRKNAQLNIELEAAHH

With CCN(CC)CCCOc1cccc(-c2cccc3c2CCN3C(=O)c2ncc(CNC(=NC#N)Nc3ccncc3)s2)c1 [LZFPN-90] the “Relative inhibition (敏感性)” value [1] was 0.24, the “thermal stability of NAMPT” value ([2]; LZFPN-90 20 nM vs blank group) was “the stability of NAMPT and PD-L1 increased” and the “Relative band intensity (NAMPT)” value ([2]; 38 ℃) was 1.21 and 1.06. The “Relative band intensity (NAMPT)” value ([2]; 42 ℃) was 1.16 and 1.1, the “Relative band intensity (NAMPT)” value ([2]; 46 ℃) was 1.06 and 1.08 and the “Relative band intensity (NAMPT)” value ([2]; 50 ℃) was 1.08 and 1.02. The “Relative band intensity (NAMPT)” value ([2]; 54 ℃) was 1.25 and 1.19, the “Relative band intensity (NAMPT)” value ([2]; 58 ℃) was 1.21 and 1.16 and the “Relative band intensity (NAMPT)” value ([2]; 62 ℃) was 1.18 and 1.13. The “Relative band intensity (NAMPT)” value ([2]; 66 ℃) was 0.52 and 0.48, the “TIR / tumor growth inhibition (TGI) rate at endpoint” value ([3]; 14 days, Fig 7B) was 76.01% and the “TIR (relative tumor weight)” value ([3]; LLC OE NAMPT/PD-L1, Fig 7G) was 76.0%. The “effect on the organs of mice” value ([3]; LLC OE NAMPT/PD-L1 model) was “minor effect on the organs of mice”, the “Cell cycle G0/G1” value ([4]; LZ90 20) was 30.68 and 20.48 and 22.54 and the “Cell cycle G2/M” value ([4]; LZ90 20) was 39.61 and 24.71 and 42.91. For the same molecule, the “Cell cycle S” value ([4]; LZ90 20) was 43.42 and 36.35 and 37.23, the “Cell cycle G0/G1” value ([4]; LZ90 40) was 26.06 and 19.94 and 21.52 and the “Cell cycle G2/M” value ([4]; LZ90 40) was 39.6 and 30.95 and 41.08. The “Cell cycle S” value ([4]; LZ90 40) was 42.06 and 38.61 and 38.5, the “Cell cycle G0/G1” value ([4]; LZ90 60) was 42.69 and 40.27 and 41.43 and the “Cell cycle G2/M” value ([4]; LZ90 60) was 18.16 and 13.12 and 19.4. The “Cell cycle S” value ([4]; LZ90 60) was 43.44 and 39.68 and 39.66, the “Relative inhibition (敏感性)” value [5] was 0.09 and the “Relative inhibition (敏感性)” value [6] was 0.17. The “Relative inhibition (敏感性)” value [7] was 0.79, the inhibition at 0.1 µM [8] was roughly 40% and the “Relative inhibition (敏感性)” value [9] was 0.85. For the same molecule, the inhibition at 0.1 µM [10] was 26.8%, the “Relative inhibition (敏感性)” value [11] was 0.02 and the “Relative inhibition (敏感性)” value ([12]; LLC) was 0.15. The “effect on relative viability of LLC cells” value ([12]; MTT, 64 nM) was “basically had no effect”.
